Reference: BindingDB's records for doi:10.1021/acsmedchemlett.9b00354 (Bristol-Myers Squibb, 2019)
pEC50: −log10 of the molar value.

Assay: Effect on ZAP70 phosphorylation in human Jurkat cells pre-incubated for 30 mins followed by anti-CD3/CD28 stimulation measured after 10 mins

SMILES | pEC50
CCc1cc(NC(=O)c2nn(C3CCN(C(=O)NC(C)(C)C)CC3)c3ccccc23)ccc1-c1cc(C)c(=O)[nH]n1 | 5.57
CC(C)(C)NC(=O)N1CC(Cn2nc(C(=O)Nc3ccc(-c4ccc(=O)[nH]n4)c(Cl)c3)c3ccccc32)C1 | 5.10
COc1ccc2c(C(=O)Nc3ccc(NC(=O)c4nn(C)c5ccccc45)cc3C)cnn2c1 | < 4.70
CC(C)(C)NC(=O)N1CCC(n2nc(C(=O)Nc3ccc(-c4ccc(=O)[nH]n4)c(Cl)c3)c3ccccc32)CC1 | 5.24
CCc1cc(NC(=O)c2nn(C3CCN(C(=O)NC(C)(C)C)CC3)c3ccccc23)ccc1-c1n[nH]c(=O)cc1C | 5.70
CC(C)(C)NC(=O)N1CCC(n2nc(C(=O)Nc3ccc(NC(=O)c4cnn5ccccc45)cc3)c3ccccc32)CC1 | 5.85
Cc1cc(=O)[nH]nc1-c1ccc(NC(=O)c2nn(C3CCN(C(=O)NC(C)(C)C)CC3)c3ccccc23)cc1Cl | 5.39

These reach a higher pEC50. Values come first.

pEC50 | SMILES
7.38 | Cc1cc(NC(=O)c2nn(C3CCN(C(=O)NC(C)(C)C)CC3)c3ccccc23)ccc1NC(=O)c1cnn2ccccc12
7.55 | COc1ccc2c(C(=O)Nc3ccc(NC(=O)c4nn(C5CCN(C(=O)NC(C)(C)C)CC5)c5ccccc45)cc3C)cnn2c1
7.06 | Cc1cc(NC(=O)c2nn(C3CCN(C(=O)CC(C)(C)C#N)CC3)c3ccccc23)ccc1NC(=O)c1cnn2ccccc12
7.31 | CC(C)(C)NC(=O)N1CCC(n2nc(C(=O)Nc3ccc(NC(=O)c4cnn5ccccc45)c(Cl)c3)c3ccccc32)CC1
7.39 | COc1ccc2c(C(=O)Nc3ccc(NC(=O)c4nn(C5CCN(C(=O)CC(C)(C)C#N)CC5)c5ccc(F)cc45)cc3Cl)cnn2c1
7.25 | COc1ccc2c(C(=O)Nc3ccc(NC(=O)c4nn(C5CCN(C(=O)NC(C)(C)C)CC5)c5ccc(F)cc45)cc3Cl)cnn2c1
6.38 | CCc1cc(NC(=O)c2nn(C3CCN(C(=O)NC(C)(C)C)CC3)c3ccccc23)ccc1-c1n[nH]c(=O)c(C)c1C
